Source: ChEMBL document CHEMBL5120921, “Newly Discovered Peptides from the Coral Heliofungia actiniformis Show Structural and Functional Diversity” (J Nat Prod, 2022)
Bridge positions count the residues as written; N and C are the ends. Peptide text beside a SMILES is read from it.

Legend:
Assay type in all cases: toxicity
[1] = (§1) Cytotoxicity against human 1BR.3.GN cells assessed as cell proliferation at 50 nM measured after 4 days by xCELLigence based analysis relative to control; conditions: 1BR.3.GN cells, time 4 day, read-out: Activity
1BR.3.GN [2] = assay: Cytotoxicity against human 1BR.3.GN cells assessed as cell proliferation at 1250 nM measured after 4 days by xCELLigence based analysis; conditions: 96 h, 1.25 µM, time 4 day
1BR.3.GN [3] = assay: as §1; conditions: 1br.3.gn, 96 h, 0.05 µM, time 4 day

Row | Molecule | viability at 96 h, 0.05 µM [1] [%] | Activity (1BR.3.GN [2]) | Activity (1BR.3.GN [3])
1 | CC[C@H](C)[C@H](NC(=O)[C@@H]1CSSC[C@@H]2NC(=O)[C@H](Cc3ccccc3)NC(=O)[C@H](CO)NC(=O)[C@H](CCCNC(=N)N)NC(=O)[C@@H]3CSSC[C@H](NC(=O)[C@H](CCCCN)NC(=O)[C@H](CCC(N)=O)NC(=O)[C@H](CC(=O)O)NC(=O)[C@@H]4CCCN4C2=O)C(=O)N[C@@H](CC(C)C)C(=O)N[C@@H](CCCCN)C(=O)N[C@@H](CC(=O)O)C(=O)N[C@@H](CSSC[C@H](N)C(=O)N[C@@H](C)C(=O)N2CCC[C@H]2C(=O)N[C@@H](CCC(=O)O)C(=O)N3)C(=O)NCC(=O)N1)C(=O)O (H-CAPECRSFCPDQKCLKDCGCI-OH; disulfide 1-18, 5-14, 9-20) | > 15 |  | 
2 | H-FNPVGVAFKGNNGKYLSRIHRSGIDYTEFAKDNTD-OH |  | Non-Toxic | Non-Toxic
